The target in one experiment is T1, human HIPK2 (Homo sapiens, UniProt Q9H2X6).
T1 construct: Recombinant human HIPK2 (1-640); GST (N); purchased SignalChem H04-11BG; host or cells: Sf9 insect cells
The experiment can be described thus: HIPK2 enzyme assay (ADP-Glo). It counts as biochemical. The conditions noted are these: ADP-Glo, ATP 5 μM; read-out: HIPK2 IC50. In a few lines: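 GST-tagged HIPK2 (1-640) from Sf9, 1 nM, preincubated 30 min at 25° C with inhibitor in 40 mM Tris pH 7.5, 20 mM MgCl2. Reaction ran 90 min at 25° C with GST-MBP substrate at 0.05 mg/ml and 5 μM ATP. ADP-Glo luminescence; IC50 by four-parameter logistic fit.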
In general terms: In ADP-Glo the light output rises with the ADP produced.

The test system of experiment [1] is Neonatal Rat Ventricular Myocytes (NRVMs). Nature of the experiment: Myocyte proliferation assay (EdU assay) in neonatal rat ventricular myocytes. The class given is cell-based. The conditions noted are these: growth relative to blank myocyte growth without compound added; for Avg 1 uM (average myocyte proliferation): compound 1 uM; for Avg 3 uM (average myocyte proliferation): compound 3 uM. In a few lines:
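Neonatal rat ventricular myocytes, fibroblast-depleted by preplating, serum-starved 24 h (2% FBS/ITS), then given compound at 10, 3 or 1 uM in 6% FBS medium for 36 h before 12 h EdU labelling. Fixed cells stained for EdU (Click-iT), ab8295 primary antibody and DAPI; quantified by high-content confocal imaging.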

T1 sequence (Q9H2X6 1-640): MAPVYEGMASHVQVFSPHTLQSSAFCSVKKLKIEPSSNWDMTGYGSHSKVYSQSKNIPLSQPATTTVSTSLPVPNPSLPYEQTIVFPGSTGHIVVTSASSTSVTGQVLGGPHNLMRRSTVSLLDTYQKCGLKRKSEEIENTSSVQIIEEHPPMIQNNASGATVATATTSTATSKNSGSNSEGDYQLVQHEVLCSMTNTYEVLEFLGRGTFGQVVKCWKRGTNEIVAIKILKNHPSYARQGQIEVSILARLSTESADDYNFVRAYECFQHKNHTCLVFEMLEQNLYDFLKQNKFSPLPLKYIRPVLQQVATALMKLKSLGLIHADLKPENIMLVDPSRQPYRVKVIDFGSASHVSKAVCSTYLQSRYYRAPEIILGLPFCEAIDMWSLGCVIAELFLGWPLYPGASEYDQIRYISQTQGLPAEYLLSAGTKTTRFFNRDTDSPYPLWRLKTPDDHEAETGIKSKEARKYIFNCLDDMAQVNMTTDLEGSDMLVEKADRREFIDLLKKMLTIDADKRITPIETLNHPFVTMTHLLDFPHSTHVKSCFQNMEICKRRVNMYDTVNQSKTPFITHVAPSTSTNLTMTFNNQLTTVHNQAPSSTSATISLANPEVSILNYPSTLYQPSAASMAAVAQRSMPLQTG

As to `O=C1NC(Nc2ccc3c(c2)OCCO3)=N/C1=C\c1ccc2ncsc2c1` [Example 81, (Z)-5-(benzo[d]thiazol-6-ylmethylene)-2-((2,3-dihydrobenzo[b][1,4]dioxin-6-yl)amino)-3,5-dihydro-4H-imidazol-4-one], on human HIPK2, the IC50 was below 0.1 µM. In experiment [1], the “Avg 1 uM (average myocyte proliferation)” value is recorded as “* (<10% growth relative to blank myocyte growth without compound added.)” and the “Avg 3 uM (average myocyte proliferation)” value is reported as “* (<10% growth relative to blank myocyte growth without compound added.)”.
`O=C1NC(Nc2ccc3nccnc3c2)=N/C1=C\c1ccc2ncsc2c1` [Example 82, (Z)-5-(benzo[d]thiazol-6-ylmethylene)-2-(quinoxalin-6-ylamino)-3,5-dihydro-4H-imidazol-4-one]: on human HIPK2, the IC50 was 0.1 to 1 µM. Further, in experiment [1], the “Avg 1 uM (average myocyte proliferation)” value is on record as “** (10%-50%)” and the “Avg 3 uM (average myocyte proliferation)” value was “** (10%-50%)”.
As for `CN(C1=N/C(=C\c2ccc3ncsc3c2)C(=O)N1)c1ccc2ncsc2c1` [Example 83, (Z)-2-(benzo[d]thiazol-6-yl(methyl)amino)-5-(benzo[d]thiazol-6-ylmethylene)-3,5-dihydro-4H-imidazol-4-one], the IC50 on human HIPK2 is above 10 µM. Also, in experiment [1], the “Avg 1 uM (average myocyte proliferation)” value is on record as “** (10%-50%)” and the “Avg 3 uM (average myocyte proliferation)” value is on record as “** (10%-50%)”.
On to `CN(C1=N/C(=C\c2ccc3c(c2)OCCO3)C(=O)N1)c1ccc2ncsc2c1` [Example 84, (Z)-2-(benzo[d]thiazol-6-yl(methyl)amino)-5-((2,3-dihydrobenzo[b][1,4]dioxin-6-yl)methylene)-3,5-dihydro-4H-imidazol-4-one], for which the IC50 on human HIPK2 was 1 to 10 µM. Further, in experiment [1], the “Avg 1 uM (average myocyte proliferation)” value is reported as “* (<10% growth relative to blank myocyte growth without compound added.)” and the “Avg 3 uM (average myocyte proliferation)” value is reported as “** (10%-50%)”.
Taken in the same sequence, the figures for `O=C1NC(Nc2ccc3ncsc3c2)=NC1Cc1ccc2ncsc2c1` (stereo not drawn) [Example 102, 2-(benzo[d]thiazol-6-ylamino)-5-(benzo[d]thiazol-6-ylmethyl)-3,5-dihydro-4H-imidazol-4-one] were 0.1 to 1 µM, “* (<10% growth relative to blank myocyte growth without compound added.)” and “** (10%-50%)”.
With `NC1=N/C(=C\c2ccc3ncsc3c2)C(=O)N1` [Example 103, (Z)-2-amino-5-(benzo[d]thiazol-6-ylmethylene)-3,5-dihydro-4H-imidazol-4-one], the IC50 on human HIPK2 was in the range of 0.1 to 1 µM. Also, in experiment [1], the “Avg 1 uM (average myocyte proliferation)” value was “** (10%-50%)” and the “Avg 3 uM (average myocyte proliferation)” value is “** (10%-50%)”.
As to `O=C1NC(Nc2ccc3nc(Nc4ccccc4)sc3c2)=N/C1=C\c1ccc2ncsc2c1` [Example 104, (Z)-5-(benzo[d]thiazol-6-ylmethylene)-2-((2-(phenylamino)benzo[d]thiazol-6-yl)amino)-3,5-dihydro-4H-imidazol-4-one], the IC50 on human HIPK2 was in the range of 1 to 10 µM. Also, in experiment [1], the “Avg 1 uM (average myocyte proliferation)” value is listed as “* (<10% growth relative to blank myocyte growth without compound added.)” and the “Avg 3 uM (average myocyte proliferation)” value was “** (10%-50%)”.
For the compound `O=C1NC(N(CC2CC2)c2ccc3ncsc3c2)=N/C1=C\c1ccc2ncsc2c1` [Example 105, (Z)-2-(benzo[d]thiazol-6-yl(cyclopropylmethyl)amino)-5-(benzo[d]thiazol-6-ylmethylene)-3,5-dihydro-4H-imidazol-4-one], the IC50 at human HIPK2 was above 10 µM. Further, in experiment [1], the “Avg 1 uM (average myocyte proliferation)” value was “** (10%-50%)” and the “Avg 3 uM (average myocyte proliferation)” value is on record as “** (10%-50%)”.

For orientation: IC50 means the concentration that gives 50% inhibition.

Source of the values: patent publication US12643887B2, “Heterocyclic derivatives with cardiomyocyte proliferation activity for treatment of heart diseases” (Tongji University, priority 2019, dated 2026).
